Reference: US9067898B1, “Isothiazole derivatives as GPR120 agonists for the treatment of type II diabetes” (Janssen Pharmaceutica NV, priority 2014, dated 2015)
pEC50: −log10 of the molar value.

How the values were obtained:
[1] = biological target: T1, long form of human GPR120 (Homo sapiens, UniProt Q5NUL3); test: Human GPR120 DiscoveRx PathHunter Beta-Arrestin assay, Procedure β-arrestin A; format: cell-based; conditions: PathHunter CHO-K1 GPR120 β-Arrestin cell line, 3000 cells per well, read-out: hGPR120 β-arrestin A EC50
T1 construct: host or cells: PathHunter CHO-K1 GPR120 β-Arrestin Cell Line
Text: The binding of an agonist (medium/long chain fatty acids or small molecule agonists) to the G-protein-coupled receptor GPR120 activates phospholipase C, leading to release of intracellular Ca^+2 through the generation of inositol 1,4,5-trisphosphate (InsP3 or IP3). GPR120 activation can also trigger intracellular signaling via recruitment of Beta-Arrestin. In the present method, agonist-induced activation of the human GPR120 receptor is monitored through the use of PathHunter CHO-K1 GPR120 Beta-Arrestin Cell Line engineered by DiscoveRx, as detailed below. The cell lines are designed to co-express both the ProLink/Enzyme Donor (PK)-tagged GPCR and the Enzyme […] (EA)-tagged Beta-Arrestin fusion proteins. Upon GPR120 receptor stimulation/activation, the EA-tagged Beta-Arrestin portion is translocated to the tagged receptor, where the two enzyme fragments are brought within close proximity. Under these conditions, these fragments can interact and form an active Beta-gal enzyme complex through Enzyme Fragment Complementation (EFC). This active Beta-gal complex can enzymatically hydrolyse the substrate to produce a detectable light signal; therefore, activation as a function of agonist concentration can be expressed as an EC50 value to determine relative compound activities. This in vitro assay therefore serves to assess compound agonist activity of the GPR120. Procedure β-Arrestin A: In Procedure β-arrestin A, the cell used were PathHunter CHO-K1 GPR120 β-Arrestin Cell Line, expressing the long form of human GPR120 (Genbank accession number NM 181745), with 3000 cells per well. Procedure β-Arrestin B: In Procedure 3-arrestin B the cells used were PathHunter CHO-K1 GPR120S β-Arrestin Cell Line, expressing the short form of the GPR120 receptor (Accession #NM_181745), with 5000 cells/well. Assay Procedure:
The selected CHO-K1 GPR120 β-Arrestin cells were cultured in Ham's F12 media supplemented with 10% fetal bovine serum (FBS), 1% Glutamine, lx p/s, 800 μg/mL G418 and 300 μg/mL Hygromycin B (for selection). Cell stocks were maintained and grown in a sub-confluent state using standard cell culture procedures. The day before the experiment, the cells were harvested with non-enzymatic cell dissociation buffer and re-suspended in complete growth media at the desired concentration. A Corning 384-plate was then seeded with the proper number of cells in a volume of 25 μL, per well. The seeded plates were incubated overnight at 37° C.
On the day of the experiment, the Assay Buffer containing (a) HBSS with Ca^++ and Mg^++, (b) 20 mM HEPES, and (c) 0.1% BSA stabilizer (pH 7.4) was prepared. The growth medium was gently removed from the cell plates and 20 μL of Assay Buffer added to each well. The plate was then incubated at 37° C. for 60 min. Test compounds were serially diluted in Assay Buffer to desired concentrations (more particularly to one or more of the following μM concentrations: 25, 12.5, 6.25, 3.125, 1.5625, 0.78125, 0.390625, 0.1953125, 0.09765625, 0.048828125, 0.024414063, 0.012207031). Five μL of compound dilution was then added to each well and the plate incubated at 37° C. for 90 min. The detection reagents were prepared according to the manufacture's instruction. Twelve μL of the detection reagents were added to each well and the plate incubated at room temperature for 60 min.
The plates were read on an EnVision instrument, using Protocol name: Luminescence, Plate type: 384 Costar, Measurement height: 3 mm, Measurement time: 1 s, Aperture: 384 Plate aperture. The % activity relative to the positive control was calculated using the following equation:
The % Activity values were plotted versus the concentration of test compound and fitted to a sigmoidal dose-response curve with a Hill slope=1 (fixed value) using nonlinear regression with GraphPad Prism 5.0 to calculate the EC50 values. […]

Human GPR120 short form = biological target: T2, Human GPR120 short form (Homo sapiens, UniProt Q5NUL3); test: Human GPR120 calcium flux assay (FLIPR), Procedure Calcium A; format: cell-based; conditions: HEK-293 cells expressing human GPR120 short form, 2500 cells/well; read-out: GPR120 Ca2+ Assay A EC50
T2 construct: expressed in transfected cells
T2 sequence (Q5NUL3 1-361): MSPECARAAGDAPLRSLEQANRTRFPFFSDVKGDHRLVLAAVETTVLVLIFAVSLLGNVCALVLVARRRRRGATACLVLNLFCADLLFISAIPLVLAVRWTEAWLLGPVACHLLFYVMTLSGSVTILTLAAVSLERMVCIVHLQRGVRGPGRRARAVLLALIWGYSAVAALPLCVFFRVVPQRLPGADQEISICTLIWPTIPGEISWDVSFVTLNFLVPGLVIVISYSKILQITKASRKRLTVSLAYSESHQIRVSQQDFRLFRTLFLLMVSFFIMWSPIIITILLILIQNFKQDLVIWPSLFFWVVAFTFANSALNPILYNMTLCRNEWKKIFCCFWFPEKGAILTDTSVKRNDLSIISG
Outline: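 HEK293 cells stably expressing the short isoform (NM_001195755.1), 2500/well, starved 1 h, then loaded with Fluo-4 NW plus probenecid (30 min 37 °C, 15 min RT). Compound solutions 0.012–100 μM, 0.2% DMSO final; FLIPR read 300 s after addition. EC50 from Fmax−Fmin fitted to variable-slope sigmoid (Hill <2).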

T1 sequence (Q5NUL3 1-377 isoform Q5NUL3-1): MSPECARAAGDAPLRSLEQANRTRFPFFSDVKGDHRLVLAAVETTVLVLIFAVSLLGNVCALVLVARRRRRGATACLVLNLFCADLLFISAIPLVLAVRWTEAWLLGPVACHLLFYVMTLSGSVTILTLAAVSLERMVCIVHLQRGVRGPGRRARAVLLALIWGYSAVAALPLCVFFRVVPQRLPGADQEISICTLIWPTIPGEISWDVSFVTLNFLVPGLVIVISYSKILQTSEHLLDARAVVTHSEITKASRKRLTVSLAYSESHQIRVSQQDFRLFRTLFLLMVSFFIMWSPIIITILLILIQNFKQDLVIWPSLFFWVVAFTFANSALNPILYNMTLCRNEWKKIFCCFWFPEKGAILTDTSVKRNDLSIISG
T1 sequence (P32121 whole entry partner): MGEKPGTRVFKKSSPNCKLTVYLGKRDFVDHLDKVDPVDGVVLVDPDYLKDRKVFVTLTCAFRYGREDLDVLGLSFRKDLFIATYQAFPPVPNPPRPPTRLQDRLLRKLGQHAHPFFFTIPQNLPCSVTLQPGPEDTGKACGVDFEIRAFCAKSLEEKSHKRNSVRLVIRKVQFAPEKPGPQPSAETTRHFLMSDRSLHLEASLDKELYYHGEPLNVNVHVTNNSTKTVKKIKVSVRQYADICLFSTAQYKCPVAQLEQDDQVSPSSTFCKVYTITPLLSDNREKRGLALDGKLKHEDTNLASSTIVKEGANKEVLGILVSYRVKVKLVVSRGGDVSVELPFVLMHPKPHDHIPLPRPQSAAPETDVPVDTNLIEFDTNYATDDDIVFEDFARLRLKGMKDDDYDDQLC

| Molecule | pEC50 [1] | pEC50 (Human GPR120 short form) |
| --- | --- | --- |
| O=C(O)CCc1cc(F)c(OCc2c(-c3ccc4c(c3)OCO4)csc2C(F)(F)F)c(F)c1 [Cpd 44, 3-(4-((4-(benzo[d][1,3]dioxol-5-yl)-2-(trifluoromethyl)thiophen-3-yl)methoxy)-3,5-difluorophenyl)propanoic acid] | 6.34 | 6.82 |
| COc1ccc(-c2csc(C(F)(F)F)c2COc2c(F)cc(CCC(=O)O)cc2F)cn1 [Cpd 42, 3-(3,5-difluoro-4-((4-(6-methoxypyridin-3-yl)-2-(trifluoromethyl)thiophen-3-yl)methoxy)phenyl)propanoic acid] | 6.35 | 6.84 |
| O=C(O)CCc1cc(F)c(OCc2csnc2-c2ccc(Cl)cc2)c(F)c1 [Cpd 179, 3-(4-((3-(4-chlorophenyl)isothiazol-4-yl)methoxy)-3,5-difluorophenyl)propanoic acid] | 6.31 | 6.57 |
| O=C(O)CCc1ccc(OCc2csnc2-c2ccc(Cl)cc2)c(F)c1F [Cpd 189, 3-(4-((3-(4-chlorophenyl)isothiazol-4-yl)methoxy)-2,3-difluorophenyl)propanoic acid] | 6.21 | 6.51 |
| Cc1c(CCC(=O)O)ccc(OCc2c(Cl)nsc2-c2ccc(F)cc2)c1C [Cpd 154, 3-(4-[[3-chloro-5-(4-fluorophenyl)-1,2-thiazol-4-yl]methoxy]-2,3-dimethylphenyl)propanoic acid] | 6.37 | 6.75 |
| CCc1ccc(-c2nsc(C(F)(F)F)c2COc2c(F)c(F)c(CCC(=O)O)c(F)c2F)cc1 [Cpd 118, 3-(4-((3-(4-ethylphenyl)-5-(trifluoromethyl)isothiazol-4-yl)methoxy)-2,3,5,6-tetrafluorophenyl)propanoic acid] | 6.59 | 6.98 |
| O=C(O)CCc1ccc(OCc2csnc2-c2ccc(Br)cc2)c(F)c1F [Cpd 187, 3-(4-((3-(4-bromophenyl)isothiazol-4-yl)methoxy)-2,3-difluorophenyl)propanoic acid] | 6.05 | 6.52 |
| O=C(O)/C=C/c1cc(F)c(OCc2c(-c3ccc(Cl)cc3)nsc2C(F)(F)F)c(F)c1 [Cpd 201, (E)-3-(4-((3-(4-chlorophenyl)-5-(trifluoromethyl)isothiazol-4-yl)methoxy)-3,5-difluorophenyl)acrylic acid] | 6.47 | 6.34 |
| O=C(O)/C=C/c1ccc(OCc2c(Cl)nsc2-c2ccc(Cl)cc2)c(F)c1F [Cpd 185, (E)-3-(4-((3-chloro-5-(4-chlorophenyl)isothiazol-4-yl)methoxy)-2,3-difluorophenyl)acrylic acid] | 6.49 | 6.52 |
| CCc1ccc(-c2nsc(C(F)(F)F)c2COc2c(F)cc(CC(C)CO)cc2F)cc1 (stereo not shown) [Cpd 216, 3-(4-[[3-(4-ethylphenyl)-5-(trifluoromethyl)-1,2-thiazol-4-yl]methoxy]-3,5-difluorophenyl)-2-methylpropan-1-ol] | 6.33 | 6.17 |
| O=C(O)CCc1cc(F)c(OCc2csnc2-c2ccc(Br)cc2)c(F)c1 [Cpd 169, 3-(4-((3-(4-bromophenyl)isothiazol-4-yl)methoxy)-3,5-difluorophenyl)propanoic acid] | 6.31 | 6.65 |

The next molecules have a higher pEC50 [1] than those just listed; values first:

| pEC50 [1] | pEC50 (Human GPR120 short form) | Molecule |
| --- | --- | --- |
| 6.61 | 7.29 | CCc1ccc(-c2nsc(C(F)(F)F)c2COc2c(F)cc(CC(C)C(=O)O)cc2F)cc1 (stereo not shown) [Cpd 80, 3-(4-[[3-(4-ethylphenyl)-5-(trifluoromethyl)-1,2-thiazol-4-yl]methoxy]-3,5-difluorophenyl)-2-methylpropanoic acid] |
| 6.65 | 6.90 | CCc1ccc(-c2cc(Cl)sc2COc2ccc(CCC(=O)O)c(F)c2F)cc1 [Cpd 11, 3-(4-[[5-chloro-3-(4-ethylphenyl)thiophen-2-yl]methoxy]-2,3-difluorophenyl)propanoic acid] |
| 6.68 | 6.16 | 3-(4-((4-(4-ethylphenyl)thiophen-3-yl)methoxy)-3,5-difluorophenyl)propanoic acid [Cpd 53] |
| 6.72 | 7.21 | CCc1ccc(-c2cc(Cl)sc2COc2ccc(CCC(=O)O)c(C)c2C)cc1 [Cpd 5, 3-(4-[[5-chloro-3-(4-ethylphenyl)thiophen-2-yl]methoxy]-2,3-dimethylphenyl)propanoic acid] |
| 6.72 | 7.12 | Cc1c(CCC(=O)O)ccc(OCc2c(Cl)nsc2-c2ccccc2)c1C [Cpd 101, 3-[4-[(3-chloro-5-phenyl-1,2-thiazol-4-yl)methoxy]-2,3-dimethylphenyl]propanoic acid] |
| 6.73 | 7.13 | COc1ccc(-c2nsc(C(F)(F)F)c2COc2c(F)cc(CCC(=O)O)cc2F)cn1 [Cpd 98, 3-(3,5-difluoro-4-((3-(6-methoxypyridin-3-yl)-5-(trifluoromethyl)isothiazol-4-yl)methoxy)phenyl) propanoic acid] |
| 6.91 | 6.89 | OCCCc1ccc(OCc2c(-c3ccc(Cl)cc3)nsc2C(F)(F)F)c(F)c1F [Cpd 132, 3-(4-((3-(4-chlorophenyl)-5-(trifluoromethyl)isothiazol-4-yl)methoxy)-2,3-difluorophenyl)propan-1-ol] |
| 6.94 | 6.70 | 3-(4-((3-chloro-5-(4-ethylphenyl)isothiazol-4-yl)methoxy)-2,3,5-trifluorophenyl)propan-1-ol [Cpd 140] |
| 6.98 | 6.83 | OCCCc1cc(F)c(OCc2c(C3CCCC3)nsc2C(F)(F)F)c(F)c1 [Cpd 141, 3-(4-[[3-cyclopentyl-5-(trifluoromethyl)-1,2-thiazol-4-yl]methoxy]-3,5-difluorophenyl)propan-1-ol] |
| 7.01 | 7.47 | CCc1ccc(-c2nsc(C(F)(F)F)c2COc2c(F)cc(CCC(=O)O)cc2F)cc1 [Cpd 70, 3-(4-[[3-(4-ethylphenyl)-5-(trifluoromethyl)-1,2-thiazol-4-yl]methoxy]-3,5-difluorophenyl)propanoic acid] |
| 7.17 | 6.86 | CCc1ccc(-c2snc(Cl)c2COc2c(F)cc(CCCO)c(F)c2F)cc1 [Cpd 140, 3-(4-((3-chloro-5-(4-ethylphenyl)isothiazol-4-yl)methoxy)-2,3,5-trifluorophenyl)propan-1-ol] |
| 7.27 | 7.25 | CCc1ccc(-c2snc(Cl)c2COc2ccc(CCCO)c(F)c2F)cc1 [Cpd 83, 3-(4-((3-chloro-5-(4-ethylphenyl)isothiazol-4-yl)methoxy)-2,3-difluorophenyl)propan-1-ol] |
